≈ marks a conversion by molar mass, not a printed value. Like-named read-outs stand apart in the source and are kept apart here. Marks after values point to notes of the source that are not given here.
Legend:
[1] = tested on: Pseudomonas aeruginosa MDR R22 from China (V1); test: MIC assay, CAMHB with alginate oligomer, no visible growth; format: cell-based; details: for MIC: Pseudomonas aeruginosa, read-out: MIC
Source text: (§1) The study described in Example 1 was repeated with the following strains of bacteria and antibiotics as detailed in Tables 4, 5 and 6.

[2] = tested on: Acinetobacter baumannii (MDR ACB, Libya, V4); test: MIC-assay, Mueller-Hinton broth with G-block alginate, 384-well, OD600
[3] = tested on: V11 5702 (Wales) E. coli; test: MIC assay, CAMHB with alginate oligomer, no visible growth; format: cell-based; details: Table 5, V11 MDR E.coli
[4] = tested on: Burkholderia cepacia (LMG18941, ATCC-BAA-246); test: MIC-assay, Mueller-Hinton broth with G-block alginate, 384-well, OD600
[5] = tested on: V19 non MDR Acinetobacter baumannii; test: MIC assay, CAMHB with M-block alginate oligomer, no visible growth; format: cell-based; details: Table 7, V19 non MDR Acin. baum
Source text: The study described in Example 1 was repeated with the following strains of Acinetobacter baumannii, antibiotics and M-block alginate oligomer in place of OligoG CF-5/20 as detailed in Table 7. The M-block oligomer is 100% M with a DPn of 15 to 18,

[6] = tested on: Pseudomonas aeruginosa MDR 301 from Poland (V2); test: MIC assay, CAMHB with alginate oligomer, no visible growth; format: cell-based; details: Pseudomonas aeruginosa, read-out: MIC
[7] = tested on: V22 6056 Acinetobacter; test: as above; format: cell-based, Acinetobacter lwoffii; details: Table 5, V22 MDR Acin. lwoff
[8] = tested on: Acinetobacter lwoffii (6056, V22); test: MIC-assay, Mueller-Hinton broth with G-block alginate, 384-well, OD600
[9] = tested on: V23 1322 Burkholderia cepacia; test: MIC assay, CAMHB with alginate oligomer, no visible growth; format: cell-based
[10] = tested on: MDR Pseudomonas strains; test: MIC assay of Example 1, summary over the MDR Pseudomonas strains; format: cell-based, Pseudomonas aeruginosa
[11] = tested on: V5 AIM-1 E. coli; test: MIC assay, CAMHB with alginate oligomer, no visible growth; format: cell-based; details: Escherichia coli, Table 4, V5 MDR E. coli
Source text: as §1

[12] = tested on: Pseudomonas aeruginosa CFA 24-1, clinical mucoid strain (R80); test: as above; format: cell-based; details: Pseudomonas aeruginosa, Table 4, R80 non MDR (muc.), read-out: MIC
[13] = tested on: Pseudomonas aeruginosa (MDR 301, PSA, V2); test: MIC-assay, Mueller-Hinton broth with G-block alginate, 384-well, OD600; details: Table 8, V2
[14] = Table 9, G-block (OligoCF-5/20) 0%
[15] = Table 9, G-block (OligoCF-5/20) 2%
[16] = Table 9, G-block (OligoCF-5/20) 6%
[17] = Table 9, G-block (OligoCF-5/20) 10%
[18] = ATCCBAA246|LMG18941, Table 8, G-block (OligoCF-5/20) 6%
[19] = ATCCBAA246|LMG18941, Table 8, G-block (OligoCF-5/20) 10%
[20] = Acinetobacter, OligoCF-5/20 0G, read-out: MIC
[21] = Burkholderia cepacia, Table 5, V23 MDR Burk cep, OligoCF-5/20 0G, read-out: MIC
[22] = Table 5, V23 MDR Burk cep, OligoCF-5/20 +10% G

Structure (SMILES): O=C(O)c1cn(C2CC2)c2cc(N3CCNCC3)c(F)cc2c1=O [Ciprofloxacin]
- MIC ([1]; Table 1, V1 MDR R22 PA, OligoCF-5/20 0G): 16 µg/mL (≈ 48.3 µM)
- MIC ([1]; Table 1, V1 MDR R22 PA, OligoCF-5/20 +2% G): 16 µg/mL (≈ 48.3 µM)
- MIC ([1]; Table 1, V1 MDR R22 PA, OligoCF-5/20 +6% G): 8 µg/mL (≈ 24.1 µM)
- MIC ([1]; Table 1, V1 MDR R22 PA, OligoCF-5/20 +10% G): 4 µg/mL (≈ 12.1 µM)
- change of MIC in combination with azithromycin by alginate oligomer ([1]; Table 3, MDR R22 PA strain): reduced
- MIC [2, 14]: 4 µg/mL (≈ 12.1 µM)
- MIC [2, 15]: 1 µg/mL (≈ 3.02 µM)
- MIC [2, 16]: 1 µg/mL (≈ 3.02 µM)
- MIC [2, 17]: 0.5 µg/mL (≈ 1.51 µM)
- MIC ([3]; OligoCF-5/20 +2% G): 64^† μg/ml
- MIC ([4]; ATCCBAA246|LMG18941, Table 8, G-block (OligoCF-5/20) 0%): > 8 µg/mL
- MIC ([4]; ATCCBAA246|LMG18941, Table 8, G-block (OligoCF-5/20) 2%): > 8 µg/mL
- MIC [4, 18]: > 8 µg/mL
- MIC [4, 19]: > 8 µg/mL
- MIC ([5]; M-block oligomer 0M): 64 µg/mL (≈ 193 µM)
- MIC ([5]; M-block oligomer +2% M): 32 µg/mL (≈ 96.6 µM)
- MIC ([5]; M-block oligomer +6% M): 16 µg/mL (≈ 48.3 µM)
- MIC ([6]; Table 1, V2 MDR 301 PA, OligoCF-5/20 0G): 16 µg/mL (≈ 48.3 µM)
- MIC ([6]; Table 1, V2 MDR 301 PA, OligoCF-5/20 +2% G): 16 µg/mL (≈ 48.3 µM)
- MIC ([6]; Table 1, V2 MDR 301 PA, OligoCF-5/20 +6% G): 8 µg/mL (≈ 24.1 µM)
- MIC ([6]; Table 1, V2 MDR 301 PA, OligoCF-5/20 +10% G): 8 µg/mL (≈ 24.1 µM)
- MIC [7, 20]: < 0.25 µg/mL
- MIC [8, 14]: < 2 µg/mL
- MIC [8, 15]: < 2 µg/mL
- MIC [8, 16]: < 2 µg/mL
- MIC [8, 17]: < 2 µg/mL
- MIC [9, 21]: 64 µg/mL (≈ 193 µM)
- MIC ([9]; Table 5, V23 MDR Burk cep, OligoCF-5/20 +2% G): 64 µg/mL (≈ 193 µM)
- MIC ([9]; Table 5, V23 MDR Burk cep, OligoCF-5/20 +6% G): 64 µg/mL (≈ 193 µM)
- MIC [9, 22]: 32^† μg/ml
- effectiveness when used in combination with the alginate oligomers [10]: more effective

Structure (SMILES): CC[C@H]1OC(=O)[C@H](C)[C@@H](O[C@H]2C[C@@](C)(OC)[C@@H](O)[C@H](C)O2)[C@H](C)[C@@H](O[C@@H]2O[C@H](C)C[C@H](N(C)C)[C@H]2O)[C@](C)(O)C[C@@H](C)C(=O)[C@H](C)[C@@H](O)[C@]1(C)O [Erythromycin]
- MIC ([11]; OligoCF-5/20 0G): 4 µg/mL (≈ 5.45 µM)
- MIC ([11]; OligoCF-5/20 +2% G): 4 µg/mL (≈ 5.45 µM)
- MIC ([11]; OligoCF-5/20 +6% G): ≤ 1 µg/mL
- MIC ([11]; OligoCF-5/20 +10% G): ≤ 1 µg/mL
- MIC ([1]; Table 4, V1 MDR (China), OligoCF-5/20 0G): 128 µg/mL (≈ 174 µM)
- MIC ([1]; Table 4, V1 MDR (China), OligoCF-5/20 +6% G): 64 µg/mL (≈ 87.2 µM)
- MIC ([1]; Table 4, V1 MDR (China), OligoCF-5/20 +10% G): 32 µg/mL (≈ 43.6 µM)
- MIC ([12]; OligoCF-5/20 0G): 512 µg/mL (≈ 698 µM)
- MIC ([12]; OligoCF-5/20 +6% G): 128 µg/mL (≈ 174 µM)
- MIC ([12]; OligoCF-5/20 +10% G): 32 µg/mL (≈ 43.6 µM)
- MIC [2, 14]: 32 µg/mL (≈ 43.6 µM)
- MIC [2, 15]: 8 µg/mL (≈ 10.9 µM)
- MIC [2, 16]: 4 µg/mL (≈ 5.45 µM)
- MIC [2, 17]: 2 µg/mL (≈ 2.73 µM)
- MIC ([3]; Escherichia coli, OligoCF-5/20 0G, read-out: MIC): 512 µg/mL (≈ 698 µM)
- MIC [4, 18]: 64 µg/mL (≈ 87.2 µM)
- MIC [4, 19]: 64 µg/mL (≈ 87.2 µM)
- MIC ([13]; Pseudomonas aeruginosa, G-block (OligoCF-5/20) 0%): > 512 µg/mL
- MIC ([13]; Pseudomonas aeruginosa, G-block (OligoCF-5/20) 2%): > 512 µg/mL
- MIC ([13]; G-block (OligoCF-5/20) 10%): 512 µg/mL (≈ 698 µM)
- MIC ([6]; Table 4, V2 MDR (Pol.), OligoCF-5/20 0G): 128 µg/mL (≈ 174 µM)
- MIC ([6]; Table 4, V2 MDR (Pol.), OligoCF-5/20 +6% G): 64 µg/mL (≈ 87.2 µM)
- MIC ([6]; Table 4, V2 MDR (Pol.), OligoCF-5/20 +10% G): 16 µg/mL (≈ 21.8 µM)
- MIC [7, 20]: < 0.5 µg/mL
- MIC ([7]; OligoCF-5/20 +2% G): <0.5 µg/mL
- MIC ([7]; OligoCF-5/20 +6% G): <0.5 µg/mL
- MIC ([7]; OligoCF-5/20 +10% G): <0.5 µg/mL
- MIC [8, 14]: < 2 µg/mL
- MIC [8, 15]: < 2 µg/mL
- MIC [8, 16]: < 2 µg/mL
- MIC [8, 17]: < 2 µg/mL
- MIC [9, 21]: 512 µg/mL (≈ 698 µM)
- MIC ([9]; Burkholderia cepacia, Table 6, V23, Experiment 1 (18-03-10), OligoCF-5/20 0G, read-out: MIC): 512 µg/mL (≈ 698 µM)
- MIC ([9]; Burkholderia cepacia, Table 6, V23, Experiment 3 (19-03-10), OligoCF-5/20 0G, read-out: MIC): > 512 µg/mL
- MIC [9, 22]: 16^† μg/ml
- MIC ([9]; Table 6, V23, Experiment 1 (18-03-10), OligoCF-5/20 +10% G): 64^† μg/ml
- MIC ([9]; Table 6, V23, Experiment 2 (18-03-10), OligoCF-5/20 +6% G): 64^† μg/ml
- MIC ([9]; Table 6, V23, Experiment 2 (18-03-10), OligoCF-5/20 +10% G): 64^† μg/ml
- MIC ([9]; Table 6, V23, Experiment 3 (19-03-10), OligoCF-5/20 +6% G): 64^† μg/ml
- MIC ([9]; Table 6, V23, Experiment 3 (19-03-10), OligoCF-5/20 +10% G): 16^† μg/ml

— patent publication US9801901B2, “Alginate oligomers for use in overcoming multidrug resistance in bacteria” (priority 2009, dated 2017)
